From publication PMC6691788, “Design and synthesis of phthalazine-based compounds as potent anticancer agents with potential antiangiogenic activity via VEGFR-2 inhibition” (Journal of Enzyme Inhibition and Medicinal Chemistry, 2019)

Columns and labels:
HL-60(TB) = assay: NCI 60 cell panel SRB screen; type: cell-based; settings: Homo sapiens
NCI-H226 = assay: NCI 60 cell panel SRB screen; type: cell-based; settings: Homo sapiens
NCI-H23 = assay: NCI 60 cell panel SRB screen; type: cell-based; settings: Homo sapiens
NCI-H460 = assay: NCI 60 cell panel SRB screen; type: cell-based; settings: Homo sapiens
SNB-19 = assay: NCI 60 cell panel SRB screen; type: cell-based; settings: Homo sapiens
SNB-75 = assay: NCI 60 cell panel SRB screen; type: cell-based; settings: Homo sapiens
U251 = assay: NCI 60 cell panel SRB screen; type: cell-based; settings: Homo sapiens, U-251
SK-MEL-28 = assay: NCI 60 cell panel SRB screen; type: cell-based; settings: Homo sapiens
IGROV1 = assay: NCI 60 cell panel SRB screen; type: cell-based; settings: Homo sapiens, IGROV-1
OVCAR-5 = assay: NCI 60 cell panel SRB screen; type: cell-based; settings: Homo sapiens
NCI/ADR-RES = assay: NCI 60 cell panel SRB screen; type: cell-based; settings: Homo sapiens
SK-OV-3 = assay: NCI 60 cell panel SRB screen; type: cell-based; settings: Homo sapiens
ACHN = assay: NCI 60 cell panel SRB screen; type: cell-based; settings: Homo sapiens
CAKI-1 = assay: NCI 60 cell panel SRB screen; type: cell-based, human
RXF 393 = assay: NCI 60 cell panel SRB screen; type: cell-based; settings: Homo sapiens
SN12C = assay: NCI 60 cell panel SRB screen; type: cell-based; settings: Homo sapiens
PC-3 = assay: NCI 60 cell panel SRB screen; type: cell-based; settings: Homo sapiens
T-47D = assay: NCI 60 cell panel SRB screen; type: cell-based; settings: Homo sapiens, T47D
full NCI 60 cell panel = assay: NCI 60 cell panel SRB screen, whole panel; type: cell-based, human; settings: Homo sapiens, 60 cell
Excerpt: Aiming to evaluate the general antitumour activity of the synthesised phthalazines, the structures of the final compounds were submitted to National Cancer Institute “NCI” (www.dtp.nci.nih.gov), Bethesda, Maryland, USA. In vitro NCI anticancer screening involves two-stage process, the first stage started with the evaluation of the selected candidates against the full NCI 60 cell lines panel representing leukaemia, non-small cell lung cancer, melanoma, colon, CNS, breast, ovarian, renal and prostate cancers at a single dose of 10 µM. NCI selection is based on degree of structure variation and application of computer modelling techniques to prioritise compounds based on their ability to add diversity to the NCI small molecule compound collection.
Eight compounds (6b, 6e, 7b, 13a, 13c, 16a, 16d and 17a) were selected by NCI for further 5 log dose screening against full NCI 60 cell panel. All the 60 cell lines, representing nine tumour subpanels (leukaemia, non-small cell lung cancer, colon cancer, CNS cancer, prostate cancer, melanoma, ovarian cancer, renal cancer and breast cancer) which were incubated at five different concentrations (0.01, 0.1, 1, 10 and 100 µM) of each of the test compounds. The outcomes were used to create log concentration vs % growth inhibition curves, then three response parameters (GI50, TGI and LC50) were calculated for each cell line, (Tables S4 and S5 in Supplementary material).
The human tumor cell lines of the cancer-screening panel were grown in RPMI 1640 medium containing 5% fetal bovine serum and […] L-glutamine. For a typical screening experiment, cells are inoculated into 96 well microtiter plates in 100 ml at plating densities ranging from 5000 to 40,000 cells/well depending on the doubling time of individual cell lines. After cell inoculation, the microtiter plates are incubated at 37 °C, 5% CO2, 95% air and 100%
relative humidity for 24 h prior to addition of experimental drugs. After 24 h, two plates of each cell line are fixed in situ with TCA, to represent a measurement of the cell population for each cell line at the time of drug addition (Tz). Experimental drugs are dissolved in dimethyl sulfoxide at 400-fold the desired final maximum test concentration and stored frozen prior to use. At the time of drug addition, an aliquot of frozen concentrate is thawed and diluted to twice the desired final maximum test concentration with complete medium containing […] Gentamicin. Additional four, 10-fold or ½log serial dilutions are made to provide a total of five drug concentrations plus control. Aliquots of […] of these different drug dilutions are added to the appropriate microtiter wells already containing 100 ml of medium, resulting in the required final drug concentrations. Following drug addition, the plates are incubated for an additional 48 h at 37 °C, 5% CO2, 95% air, and 100% relative humidity. For adherent cells, the assay is terminated by the addition of cold TCA. Cells are fixed in situ by the gentle addition of […] of cold 50% (w/v) TCA (final concentration,10% TCA) and incubated for 60 min at 4 °C. The supernatant is discarded, and the plates are washed five times with tap water and air dried. Sulforhodamine B (SRB) solution (100 ml) at 0.4% (w/v) in 1% acetic acid is added to each well, and plates are incubated for 10 min at room temperature. After staining, unbound dye is removed by washing five times with 1% acetic acid and the plates are air dried. Bound stain is subsequently dissolved with 10 μM trizma base, and the absorbance is read on an automated plate reader at a wavelength of 515 nm. For suspension cells, the methodology is the same except that the assay is terminated by fixing settled cells at the bottom of the wells by gently adding […] of 80% TCA (final concentration, 16% TCA). […]

[1] = 5 log dose, 48 h, read-out: LC50 (the source's name)
[2] = single dose 10 μM, read-out: percent cell growth promotion

## O=C(Nc1ccc(Cl)cc1)Nc1ccc(Oc2nncc3ccccc23)cc1 [Compound 7b, 1–(4-Chlorophenyl)-3–(4-(phthalazin-1-yloxy)phenyl)urea]
HL-60(TB); 5 log dose
  GI50: 1.08 µM
  IC (TGI): 13.4 µM
HL-60(TB); [1]
  CC50: > 100 µM
HL-60(TB); [2]
  activity at 10 µM: 3.65%
NCI-H226; NCI-H226, 5 log dose
  GI50: 0.62 µM
  IC (TGI): 5.42 µM
NCI-H226; NCI-H226, 5 log dose, 48 h, read-out: LC50 (the source's name)
  CC50: > 100 µM
NCI-H226; NCI-H226, single dose 10 μM, read-out: percent cell growth promotion
  activity at 10 µM: -54.5%
NCI-H23; NCI-H23, 5 log dose
  GI50: 0.75 µM
  IC (TGI): 2.87 µM
NCI-H23; NCI-H23, 5 log dose, 48 h, read-out: LC50 (the source's name)
  CC50: 9.61 µM
NCI-H23; NCI-H23, single dose 10 μM, read-out: percent cell growth promotion
  activity at 10 µM: 0.5%
NCI-H460; NCI-H460, 5 log dose
  GI50: 2.79 µM
  IC (TGI): 8.32 µM
NCI-H460; NCI-H460, 5 log dose, 48 h
  LC50 (concentration causing 50% cell kill): 45.5 µM
NCI-H460; NCI-H460, single dose 10 μM, read-out: percent cell growth promotion
  activity at 10 µM: 21.5%
SNB-19; SNB-19, 5 log dose
  GI50: 1.74 µM
  IC (TGI): 4.79 µM
SNB-19; SNB-19, 5 log dose, 48 h, read-out: LC50 (the source's name)
  CC50: 58.3 µM
SNB-19; SNB-19, single dose 10 μM, read-out: percent cell growth promotion
  activity at 10 µM: -76.5%
SNB-75; SNB-75, 5 log dose
  GI50: 0.45 µM
  IC (TGI): 1.95 µM
SNB-75; SNB-75, 5 log dose, 48 h
  LC50 (concentration killing 50% of cells): 5.2 µM
SNB-75; SNB-75, single dose 10 μM, read-out: percent cell growth promotion
  activity at 10 µM: -3.13%
U251; U251, 5 log dose
  GI50: 1.01 µM
  IC (TGI): 2.38 µM
U251; U251, 5 log dose, 48 h, read-out: LC50 (the source's name)
  CC50: 5.61 µM
U251; U251, single dose 10 μM, read-out: percent cell growth promotion
  activity at 10 µM: -31.1%
SK-MEL-28; SK-MEL-28
  GI50: 0.42 µM
SK-MEL-28; SK-MEL-28, read-out: TGI
  IC (TGI): 1.65 µM
SK-MEL-28; SK-MEL-28, read-out: percent cell growth promotion
  activity at 10 µM: -31.6%
SK-MEL-28; SK-MEL-28, 5 log dose, 48 h, read-out: LC50 (the source's name)
  CC50: 5.33 µM
IGROV1; IGROV1, 5 log dose
  GI50: 1.16 µM
  IC (TGI): 5 µM
IGROV1; IGROV1, 5 log dose, 48 h, read-out: LC50 (the source's name)
  CC50: > 100 µM
IGROV1; IGROV1, single dose 10 μM, read-out: percent cell growth promotion
  activity at 10 µM: 8.16%
OVCAR-5; OVCAR-5, 5 log dose
  GI50: 1.89 µM
  IC (TGI): 4.47 µM
OVCAR-5; OVCAR-5, 5 log dose, 48 h, read-out: LC50 (the source's name)
  CC50: 12.6 µM
OVCAR-5; OVCAR-5, single dose 10 μM, read-out: percent cell growth promotion
  activity at 10 µM: -16%
NCI/ADR-RES; 5 log dose
  GI50: 2.63 µM
  IC (TGI): > 100 µM
NCI/ADR-RES; [1]
  CC50: > 100 µM
NCI/ADR-RES; [2]
  activity at 10 µM: 37.6%
SK-OV-3; SK-OV-3, 5 log dose
  GI50: 1.74 µM
  IC (TGI): 5.48 µM
SK-OV-3; SK-OV-3, 5 log dose, 48 h, read-out: LC50 (the source's name)
  CC50: 27.2 µM
SK-OV-3; SK-OV-3, single dose 10 μM, read-out: percent cell growth promotion
  activity at 10 µM: 56.7%
ACHN; 5 log dose
  GI50: 1.05 µM
  IC (TGI): 2.33 µM
ACHN; [1]
  CC50: 5.18 µM
ACHN; [2]
  activity at 10 µM: -15.1%
CAKI-1; CAKI-1, 5 log dose
  TGI: 8.70 µM
CAKI-1; Homo sapiens, CAKI-1, 5 log dose
  GI50: 2.72 µM
CAKI-1; Homo sapiens, CAKI-1, 5 log dose, 48 h, read-out: LC50 (the source's name)
  CC50: 43.9 µM
CAKI-1; Homo sapiens, CAKI-1, single dose 10 μM, read-out: percent cell growth promotion
  activity at 10 µM: 18.7%
RXF 393; RXF 393, 5 log dose
  GI50: 0.31 µM
  IC (TGI): 1.05 µM
RXF 393; RXF 393, 5 log dose, 48 h, read-out: LC50 (the source's name)
  CC50: 3.74 µM
RXF 393; RXF 393, single dose 10 μM, read-out: percent cell growth promotion
  activity at 10 µM: -91.2%
SN12C; 5 log dose
  GI50: 1.03 µM
  IC (TGI): 3.58 µM
SN12C; [1]
  CC50: > 100 µM
SN12C; [2]
  activity at 10 µM: -3.83%
PC-3; PC-3, 5 log dose
  GI50: 1.64 µM
  IC (TGI): 6.08 µM
PC-3; PC-3, 5 log dose, 48 h, read-out: LC50 (the source's name)
  CC50: 35.6 µM
PC-3; PC-3, single dose 10 μM, read-out: percent cell growth promotion
  activity at 10 µM: -29%
T-47D
  GI50: 0.24 µM
T-47D; read-out: TGI
  IC (TGI): 7.68 µM
T-47D; read-out: percent cell growth promotion
  activity at 10 µM: 10.2%
T-47D; T-47D, 5 log dose, 48 h, read-out: LC50 (the source's name)
  CC50: > 100 µM
Full NCI 60 cell panel; mean over the panel, single dose 10 μM, read-out: Mean percent cell growth promotion
  activity at 10 µM: -6.99%
Full NCI 60 cell panel; single dose 10 µM, full panel, read-out: mean growth inhibition
  inhibition at 10 µM: 107%
